In patent US8232294B2, “Amino ester derivatives, sailts thereof and methods of use” (Sunshine Lake Pharma Co., Ltd., priority 2009, dated 2012):
Where a name gives a salt, the structure may show the parent alone.

Experiments:
U87MG tumors = assay: Human U87MG glioblastoma xenograft tumor model; type: in vivo, female nude mice (BALB/cA nu/nu); settings: 21 days; for decrease of mean tumor volume (TGI): Day 21, vs vehicle
Procedure: In a pilot study, the efficacy of compounds disclosed herein was evaluated in a standard murine model of tumorigenesis. Human tumor cells were generated with human glioblastoma cells (U87MG cells, ATCC) and were grown as subcutaneous tumors in 6-7 week old female nude mice (BALB/cA nu/nu, Shanghai SLAC Laboratory Animal, Co.) (n=10 for vehicle group, n=8 for each dosing group). When tumors reached a volume of 100-200 mm^3, animals were randomly divided into vehicle control (2% HPMC+1% Tween-80 in water) and compound groups. Subsequent administration of compound by oral gavage (10-100 mpk/dose, dissolved in purified water or 2% HPMC+1% Tween-80 in water) begins anywhere from day 0 to day 15 post tumor cell challenge and generally continues with once a day for the duration of the experiment.
(§1) Progression of tumor growth is assessed by tumor volumes and recorded as a function of time. The long (L) and short (W) axes of the subcutaneous tumors were measured with calipers twice weekly, and the tumor volume (TV) calculated as (L×W^2)/2). TGI was calculated from the difference between the median tumor volumes of vehicle-treated and drug-treated mice, expressed as a percentage of the median tumor volume of the vehicle-treated control group, by the following relation:
(§2) Initial statistical analysis is done by repeated measures analysis of variance (RMANOVA). Followed by Scheffe psot hoc testing for multiple comparisons. Vehicle alone (2% HPMC+1% Tween-80, or the like) is the negative control. Compounds disclosed herein were generally active at or less than 100 mpk.

MKN45 tumors = assay: Human MKN45 gastric adenocarcinoma xenograft tumor model; type: in vivo, female nude mice (BALB/cA nu/nu); settings: for decrease of mean tumor volume (TGI): Day 18, vs vehicle
Procedure: Xenografts were also generated with human gastric tumor cells (MKN45 cells, ATCC) and were grown as subcutaneous tumors in 6-7 week old female nude mice (BALB/cA nu/nu, Shanghai SLAC Laboratory Animal, Co.) (n=10 for vehicle group, n=8 for each dosing group). When tumors reached a volume of 60-150 mm^3, animals were randomly divided into vehicle control (2% HPMC+1% Tween-80 in water) and compound groups. Subsequent administration of compound by oral gavage (10-60 mpk/dose, dissolved in purified water or 2% HPMC+1% Tween-80 in water) begins anywhere from day 0 to day 15 post tumor cell challenge and generally continues with once a day for the duration of the experiment.
as §1, §2

Structure (SMILES) | decrease of mean tumor volume (TGI) (U87MG tumors; 10 mg/kg p.o. QD) [%] | decrease of mean tumor volume (TGI) (U87MG tumors; 30 mg/kg p.o. QD) [%] | decrease of mean tumor volume (TGI) (U87MG tumors; 100 mg/kg p.o. QD) [%] | inhibition of growth of U87MG tumors (U87MG tumors; all doses: 10, 30 and 100 mg/kg p.o. QD) | decrease of mean tumor volume (TGI) (MKN45 tumors; 10 mg/kg p.o. QD, 18 days) [%] | decrease of mean tumor volume (TGI) (MKN45 tumors; 30 mg/kg p.o. QD, 18 days) [%] | decrease of mean tumor volume (TGI) (MKN45 tumors; 60 mg/kg p.o. QD (dosed from days 0-10 and days 13-18)) [%] | inhibition of growth of MKN45 tumors (MKN45 tumors; all doses: 10, 30 and 60 mg/kg p.o. QD, 18 days)
COc1ccc2c(Oc3ccc(NC(=O)c4c(C)n(C[C@@H](C)OC(=O)CN)n(-c5ccccc5)c4=O)cc3F)ccnc2c1 [Example 53, (R)-1-(4-(3-fluoro-4-(7-methoxyquinolin-4-yloxy)phenylcarbamoyl)-5-methyl-3-oxo-2-phenyl-2,3-dihydropyrazol-1-yl)propan-2-yl 2-aminoacetate hydrochloride] | 47 | 76 | 99 | statistically significant, dose-dependent inhibition | – | – | – | –
Cc1c(C(=O)Nc2ccc(Oc3ccnc4cc(OCC5(OC(=O)CN)CC5)ccc34)c(F)c2)c(=O)n(-c2ccccc2)n1C [Example 72, 1-((4-(4-(2,3-dimethyl-5-oxo-1-phenyl-2,5-dihydro-1H-pyrazole-4-carboxamido)-2-fluorophenoxy)quinolin-7-yloxy)methyl)cyclopropyl 2-aminoacetate hydrochloride] | – | – | – | – | 29 | 62 | 87 | statistically significant, dose-dependent inhibition
